Experimental data as given in patent US20230233671A1, “RNA MOLECULES” (Pfizer Inc., priority 2021, published 2023).

Assays:
[1] = system: Vero cells; experiment: VZV gE expression and subcellular localization in Vero cells transfected with VZV RNA constructs (imaging); assay type: cell-based, African green monkeys; conditions: Table 8; VZV gE RNA, see Example 2
Procedure: Expression of VZV RNA constructs were tested in transfected Vero cells, a kidney epithelial cell culture line derived from African green monkeys. Seeded Vero cells were transfected for 24 hours at 37° C., 5% CO2 with 10 ng, 25 ng, or 50 ng of RNA constructs (Table 5) using MESSENGERMAX™ in accordance with the manufacturer's instructions. Cells were washed three times with PBS+Ca/Mg, and fixed in 4% paraformaldehyde (PFA) for 20 minutes at 25° C. Cells were washed twice with 3% bovine serum albumin (BSA) in PBS+Ca/Mg. Primary and secondary staining antibodies were diluted in 0.1% saponin in goat serum. Cells were stained with a 1:1000 dilution of primary antibody for 1 hour at 37° C., washed three times with PBS+Ca/Mg, and incubated with secondary antibody (1:500) and CELLMASK™ (1:140,000) for 45 minutes at 37° C. Cells were then stained with Dapi (1:15,000-1:20,000) for 15 minutes at 25° C., and washed three times with PBS+Ca/Mg. Cells were analyzed for VZV gE expression and subcellular localization using an Opera PHENIX® Plus High-Content Screening System at 10× or 63× magnification.

[2] = system: human embryonic kidney (HEK) 293T cells; experiment: In vitro expression (IVE) of VZV RNA-LNP vaccines in HEK 293T cells (FACS); assay type: cell-based; conditions: for VZV RNA-LNPs (293T cells) MFI: Table 8; for VZV RNA-LNPs (293T cells) EC50 (ng/well): Table 8, FIG. 15, input RNA vs percentage of gE-expressing cells, 24 hours
Procedure: In vitro expression (IVE) analyses were conducted to assess the potency of VZV RNA-LNP vaccines. RNA constructs were formulated into LNPs as previously described in Example 3, and a range of input VZV RNA-LNP quantities was transfected into human embryonic kidney (HEK) 293T cells for 24 hours at 37° C., 5% CO2. Transfected cells were washed with DPBS, detached from plate wells using ACCUTASE®, and rinsed with cold PBS. Cells were subjected to live/dead staining, fixation, and permeabilization prior to FACS staining. Fixed and permeabilized cells were incubated with an anti-gE primary antibody (1:1000) for 45 minutes at 2-8° C., washed twice with BD PERM/WASH™ buffer and incubated with a goat anti-human kappa-PE secondary antibody (1:1000) for 30 minutes at 2-8° C. Cells were washed twice with BD PERM/WASH™ buffer, resuspended in 1×FACS buffer, and analyzed on a BD LSRII to determine the proportion of cells expressing VZV gE for each VZV RNA-LNP input. A titration curve was created whereby input RNA quantities were plotted against the percentage of gE-expressing cells to determine the EC50 of each VZV RNA-LNP vaccine.

[3] = system: VZV gE; experiment: IFN-γ ELISpot of gE peptide-stimulated splenocytes from LAV-experienced C57BL/6 mice; assay type: in vivo; conditions: Day 48 (13 days post dose 1), 1 μg IM Day 35
Procedure: VZV RNA-LNP vaccines were tested for their ability to induce IgG and T cell responses in C57BL/6 mice. 15 mice per group were immunized in accordance with the schedule and specification in Table 11. Briefly, 10 or 15 mice per group were primed subcutaneously (SQ) on Day 0 with a live-attenuated varicella (LAV) vaccine (VARIVAX®, Merck) using a full human dose per mouse (1350 pfu), immunized intramuscularly (IM) on Day 35 day and boosted on Day 63. The “infection” with a LAV vaccine mimics exposure to VZV that humans receive when infected with VZV as children and develop chickenpox. […]
Vaccine-induced T cell response was measured following ex vivo stimulation of splenocytes with gE peptide pool (2 μg/mL of each peptide) by ELISpot and Intracellular Cytokine Staining (ICS) assay (described herein). […] T cell IFN-γ response was measured using Mabtech Mouse IFN-γ ELISpot PLUS kit (ALP) and expressed as spot forming cells (SFC) per million cells. The ICS assay measured IFN-γ-expressing cells within CD4^+ and CD8^+ T cells expressed as percentage of IFN-γ^+ cells within CD4^+ and CD8^+ T cells. […]

[4] = system: VZV gE; experiment: Frequency of gE-specific IgG+ B cells in splenocytes of LAV-experienced C57BL/6 mice (flow cytometry); assay type: in vivo; conditions: percentage of IgG-expressing B cells
Procedure: VZV RNA-LNP vaccines were tested for their ability to induce IgG and T cell responses in C57BL/6 mice. 15 mice per group were immunized in accordance with the schedule and specification in Table 11. Briefly, 10 or 15 mice per group were primed subcutaneously (SQ) on Day 0 with a live-attenuated varicella (LAV) vaccine (VARIVAX®, Merck) using a full human dose per mouse (1350 pfu), immunized intramuscularly (IM) on Day 35 day and boosted on Day 63. The “infection” with a LAV vaccine mimics exposure to VZV that humans receive when infected with VZV as children and develop chickenpox.
Mice immunized with SHINGRIX® received 1, 2.5, or 5 μg, corresponding to 1/50, 1/20, and 1/10 of the human clinical dose, respectively; mice immunized with gE_WT CO2 received 0.5 or 1 μg VZV RNA-LNP; mice immunized with ms5 CO1 received 0.5 or 1 ug VZV RNA-LNP; mice immunized with ms6 CO2 received 0.5 or 1 ug VZV RNA-LNP; and mice immunized with lyophilized gE_WT CO2 received 0.5 or 1 ug VZV RNA-LNP. Saline was administered on Day 35 and 63 to a negative control group. Sera was collected from mice on Day 35, 63 and 76 for characterization of VZV gE-binding IgG levels (LUMINEX® analyses). Spleens were harvested on Day 48 (13 days post dose 1 for selected groups) and Day 76 for cellular analysis (T cell and B cell responses).
Vaccine-induced B cell response was evaluated by measuring the frequencies of VZV gE-specific B cells in the spleen. Wild type gE protein ectodomain with streptag was coupled to streptavidin (SA)-fluorochromes PE and APC, both from BioLegend in the ratio of 2:1 in separate tubes for 1 hour at room temperature (RT) at 20× of desired staining concentration (10 μg/mL for each protein). Each of the SA-fluorochrome-coupled spike proteins were pooled and diluted to 1× using flow cytometry (FC) buffer (2% FBS/PBS) to generate B-cell probes to identify gE-specific B cells. Single cell suspensions of splenocytes (5×10^6 cells per well) were first washed in PBS and stained with eFluor 506 Fixable Viability dye for 10 minutes at RT to identify live from dead cells. Following washes in FC buffer, cells were incubated with 50 μL/well of 1×B-cell probe for 30 to 45 minutes and then washed to remove unbound probes. Cells were surface stained with a cocktail of flow cytometry antibodies (CD19, IgD, IgM, IgD, All from BioLegend) to identify B cell surface phenotypes. Following washing, cells were fixed using BD Fixation buffer and suspended in FC buffer. Cells were acquired on LSR Fortessa and data analyzed by FlowJo (10.7.1). The results of gE-specific B cells were expressed as the percentage of IgG-expressing B cells.

[5] = Day 48 (13 days post dose 1), 1 μg IM Day 35
[6] = Day 76 (13 days post dose 2/boost), 1 μg IM Days 35 and 63

| Substance | VZV RNA (Vero cells) MFI [1] | VZV RNA-LNPs (293T cells) MFI [2] | VZV RNA-LNPs (293T cells) EC50 (ng/well) [2] [ng/well] | gE-specific IFN-γ+ cells (ELISpot) [3] [SFC per million cells] | gE-specific IgG+ B cells [4, 5] [%] | gE-specific IgG+ B cells [4, 6] [%] |
| --- | --- | --- | --- | --- | --- | --- |
| ms6 CO2: modRNA construct, ORF SEQ ID NO: 157, VZV gE with deletion of aa 539-623, secreted | 458 | 162 | 220 | 150 | 1.85 | 1.38 |
| ms5 CO1: modRNA construct, ORF SEQ ID NO: 153, VZV gE with deletion of aa 582-623 | 1368 | 543 | 14 | 1068 | 4.14 | 2.19 |
